Data published in publication PMC10900215 (JACS Au, 2024).

Tests used:
[1] = biological target: METTL3-14 (Homo sapiens, UniProt Q86U44); experiment: biochemical; parameters: with the full-length complex, the recombinant complex construct pFastBacDual-StrepII-GFP-TEV-METTL3-His-TEV-METTL14 was expressed; StrepII (N); GFP (N); TEV site (N); made in house; host or cells: baculovirus/Sf9 insect cells; details: inhibition of catalytic activity of METTL3-14, binary FRET assay
Text: For determining the half maximal inhibitory concentration (IC50) with the full-length complex, the recombinant complex construct pFastBacDual-StrepII-GFP-TEV-METTL3-His-TEV-METTL14 was expressed using the baculovirus/Sf9 insect cell expression system and purified as described previously.[21]
The inhibitory potencies of the PROTACs for METTL3 were quantified by a homogeneous time-resolved fluorescence (HTRF)-based enzyme assay as previously described.[40]

[2] = Cell viability assay (CellTiter-Glo) on MOLM-13; type: cell-based; details: human, MOLM-13 cells, average of two biological replicates; for viability at 72 h, […]: 2.5 µM
Method: (§1) MOLM-13, NOMO-1, THP-1, Kasumi-1, PC3, and DU145 cell lines were obtained from DSMZ-German Collection of Microorganisms and Cell Cultures GmbH. Cells were cultured in RPMI 1640 medium (11875093, Thermo Fisher Scientific) containing 10% FBS (16140071, Thermo Fisher Scientific) and 1% penicillin-streptomycin (15140122, Thermo Fisher Scientific) in 5% CO2 at 37 °C in a humidified incubator, with maintained cell densities at 0.5–1 × 10^6 cells/mL. All cell lines were tested negative for mycoplasma contamination (PCR-based assay by Microsynth, Switzerland).
Cell viability was determined using a CellTiter-Glo luminescent cell viability assay (Promega) based on the detection of ATP according to the manufacturer’s instructions. 100 μL of the reagent was added to each well and incubated for 10 min at room temperature. […] Background luminescence value was obtained from wells containing the CellTiter-Glo reagent and medium without cells. The resulting data was analyzed in GraphPad Prism 9.

[3] = tested on: METTL14; experiment: Cellular degradation assay (Western blot), METTL14 in MOLM-13; type: cell-based, human; details: MOLM-13, 24 h, 2 μM compound
Method: as §1
(§2) METTL3 (and METTL14) protein degradation was monitored by Western blot. Cells were treated with the indicated concentration of PROTACs or DMSO control (0.1% (v/v)) for 24h, 37 °C with 5% CO2. Samples were then collected and lysed with RIPA buffer with added protease inhibitors (11697498001, Roche). After SDS-PAGE, proteins were transferred to a nitrocellulose membrane, blocked (with 5% milk, 0.5% BSA in TBST buffer), and incubated overnight with primary antibodies. The following antibodies were used: GAPDH (no. 2118, Cell Signaling, 1:4000), β-actin (ab8226, Abcam, 1:2000), METTL3 (ab195352, Abcam, 1:1000), and METTL14 (ab220031, Abcam, 1:1000). Membranes were scanned using an LI-COR Odyssey DLx imager after incubation with appropriate secondary antibodies (antimouse IgG IRDye 680RD (926–68072, LI-COR, 1:10000) and goat anti-Rabbit IgG IRDye 800CW (926–32211, LI-COR, 1:10000)). Densitometry was performed in Image Studio Lite software and analyzed in GraphPad Prism 9.

[4] = biological target: T1, METTL3 (Homo sapiens, UniProt Q86U44); experiment: Cellular degradation assay (Western blot), METTL3 in MOLM-13; type: cell-based; details: MOLM-13, 24 h, 2 μM compound
T1 construct: METTL3–14 degradation up to 70% of the endogenous level; endogenous in cells; host or cells: MOLM-13, PC3, DU145
Method: as §1, §2

[5] = biological target: T2, ternary complex CRBN/PROTAC/METTL3–14 (Homo sapiens, UniProt Q86U44+Q96SW2); experiment: FRET-based ternary complex formation assay (TCFA); type: binding; details: for TCFA amplitude (mean ± SEM): Hook curve amplitude, fraction of the maximum of compound 16; for ECmax (nM) ± SD: PROTAC concentration at the maximum of the signal in the TCFA; for ECmax: TCFA, peak of the Hook curve
T2 construct: methyltransferase domains (MTD) of METTL3 (residues 354–580); His6 (N, cleaved yes); made in house; host or cells: METTL3-MTD/METTL14-MTD: baculovirus/Sf9; CRBN-TBD: E. coli Rosetta (DE3), co-expressed with BirA
Method: For protein expression, suspension cultures of Sf9 cells in […] medium (Thermo Fisher) were infected at a density of 2 × 10^6 mL^–1. […] The complex was further purified by size exclusion chromatography using a Superdex 200 Increase 10/300 GL column (Cytiva) in 20 mM Tris-Cl, pH 8.0, and 200 mM KCl. The complex was aliquoted and flash-frozen in liquid nitrogen and stored at −80 °C until further use.
Ternary complex formation between the PROTACs, METTL3, and CRBN was quantified by a homogeneous time-resolved fluorescence (HTRF)-based enzyme assay. […] Curves of titrations with the PROTACs were plotted in GraphPad Prism 9.5.1 and fitted with a Gaussian function, if appropriate. […] CRBN^TBD-Avi(biotin) was used at a final concentration of 10 nM. […] Anti-GST Eu^3+-labeled antibody (Cisbio, 61GSTKLB) was used at a final concentration of 0.8 nM. The final reaction volume was 20 μL in 50 mM HEPES (pH 7.5), 150 mM NaCl, 0.1% BSA, 100 mM KF. […] The ratio of the emissions [drawing 1] was considered for further analysis. […] The concentrations resulting in the maximum signal (ECmax) and the amplitudes of the Hook curves were determined from the parameters of the Gaussian fit (if appropriate) or as the coordinates of the data-point with the highest TR-FRET signal.
For the ternary complex formation assay (TCFA), one of the protein partners must have a GST-tag and the other a biotin-tag.

T2 sequence (Q86U44 354-580): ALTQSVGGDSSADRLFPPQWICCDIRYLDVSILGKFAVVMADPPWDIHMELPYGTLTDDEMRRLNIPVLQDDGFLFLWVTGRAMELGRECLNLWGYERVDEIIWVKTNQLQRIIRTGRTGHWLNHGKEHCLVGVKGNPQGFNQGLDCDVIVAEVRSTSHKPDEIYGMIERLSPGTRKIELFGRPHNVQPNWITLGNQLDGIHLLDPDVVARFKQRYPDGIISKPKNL
T2 sequence (Q9HCE5 107-395 partner limits assumed): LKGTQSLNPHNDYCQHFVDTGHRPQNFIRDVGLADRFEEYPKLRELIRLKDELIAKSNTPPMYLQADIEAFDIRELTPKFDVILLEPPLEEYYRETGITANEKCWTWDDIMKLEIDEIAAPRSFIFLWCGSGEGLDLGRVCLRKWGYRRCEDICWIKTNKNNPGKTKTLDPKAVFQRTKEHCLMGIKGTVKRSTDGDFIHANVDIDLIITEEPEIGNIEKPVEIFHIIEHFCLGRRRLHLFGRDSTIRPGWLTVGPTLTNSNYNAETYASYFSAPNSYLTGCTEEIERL
T2 sequence (Q96SW2 318-442): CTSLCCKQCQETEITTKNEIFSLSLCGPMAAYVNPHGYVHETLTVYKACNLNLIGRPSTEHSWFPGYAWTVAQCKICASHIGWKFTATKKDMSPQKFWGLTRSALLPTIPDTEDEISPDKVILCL
T1 sequence (Q86U44 2-580 limits assumed): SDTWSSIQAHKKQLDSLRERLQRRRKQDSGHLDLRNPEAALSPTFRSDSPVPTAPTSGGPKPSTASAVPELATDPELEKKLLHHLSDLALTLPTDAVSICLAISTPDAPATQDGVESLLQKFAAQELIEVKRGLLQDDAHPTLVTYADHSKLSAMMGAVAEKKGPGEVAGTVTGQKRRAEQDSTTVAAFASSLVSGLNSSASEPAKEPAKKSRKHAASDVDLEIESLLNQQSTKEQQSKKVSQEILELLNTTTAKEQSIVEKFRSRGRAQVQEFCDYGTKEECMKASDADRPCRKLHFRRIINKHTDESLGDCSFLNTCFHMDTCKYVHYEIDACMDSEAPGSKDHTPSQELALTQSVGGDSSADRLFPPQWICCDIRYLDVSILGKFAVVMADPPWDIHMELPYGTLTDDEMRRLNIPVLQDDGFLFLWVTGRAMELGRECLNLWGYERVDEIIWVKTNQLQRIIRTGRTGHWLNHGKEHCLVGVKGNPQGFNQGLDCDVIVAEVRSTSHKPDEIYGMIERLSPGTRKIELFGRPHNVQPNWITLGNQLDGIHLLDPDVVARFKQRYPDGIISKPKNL
T1 sequence (Q9HCE5 whole entry partner): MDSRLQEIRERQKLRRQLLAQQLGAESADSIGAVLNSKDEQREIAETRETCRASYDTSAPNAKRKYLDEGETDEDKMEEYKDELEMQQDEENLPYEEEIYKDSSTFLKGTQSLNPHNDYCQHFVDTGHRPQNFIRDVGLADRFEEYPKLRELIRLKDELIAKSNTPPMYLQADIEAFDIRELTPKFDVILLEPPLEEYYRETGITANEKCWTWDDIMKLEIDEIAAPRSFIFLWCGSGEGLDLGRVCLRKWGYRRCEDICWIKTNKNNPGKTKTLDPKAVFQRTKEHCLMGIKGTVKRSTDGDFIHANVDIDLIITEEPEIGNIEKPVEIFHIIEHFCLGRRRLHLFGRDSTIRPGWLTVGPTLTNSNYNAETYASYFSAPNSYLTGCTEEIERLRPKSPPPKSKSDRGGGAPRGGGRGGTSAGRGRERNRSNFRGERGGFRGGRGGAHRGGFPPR
Chain of METTL3-14 (Q86U44 whole entry): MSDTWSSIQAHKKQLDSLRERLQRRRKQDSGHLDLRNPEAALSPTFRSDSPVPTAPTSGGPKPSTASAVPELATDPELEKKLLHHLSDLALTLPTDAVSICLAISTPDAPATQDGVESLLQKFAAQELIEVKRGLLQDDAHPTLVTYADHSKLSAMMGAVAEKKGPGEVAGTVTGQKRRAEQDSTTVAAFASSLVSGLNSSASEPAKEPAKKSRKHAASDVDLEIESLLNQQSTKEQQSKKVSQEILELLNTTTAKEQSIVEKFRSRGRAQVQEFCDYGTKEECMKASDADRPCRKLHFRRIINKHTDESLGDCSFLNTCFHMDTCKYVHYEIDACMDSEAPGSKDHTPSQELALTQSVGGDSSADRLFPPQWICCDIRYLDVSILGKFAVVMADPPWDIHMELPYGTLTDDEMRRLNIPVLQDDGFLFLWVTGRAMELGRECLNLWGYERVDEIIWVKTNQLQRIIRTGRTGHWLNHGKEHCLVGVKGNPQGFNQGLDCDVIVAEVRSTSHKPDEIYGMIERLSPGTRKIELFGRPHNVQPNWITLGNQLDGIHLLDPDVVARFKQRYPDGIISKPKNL
Chain of METTL3-14 (Q9HCE5 whole entry, further chain): as the sequence (Q9HCE5 whole entry partner) above

| SMILES | IC50 [1] [nM] | viability at 72 h, 0.6 µM [2] [%] | viability at 72 h, 1.25 µM [2] [%] | viability at 72 h, […] [2] [%] | viability at 72 h, 5 µM [2] [%] | viability at 72 h, 10 µM [2] [%] | MOLM-13 West. blot at 24h 2 μM comp conc. Degradation (%) of METTL14 [3] | MOLM-13 West. blot at 24h 2 μM comp conc. Degradation (%) of METTL3 [4] | TCFA amplitude (mean ± SEM) [5] | ECmax (nM) ± SD [5] | ECmax [5] |
| --- | --- | --- | --- | --- | --- | --- | --- | --- | --- | --- | --- |
| CC1(C)CCN(Cc2cc(F)c(N3CC(=O)NC4(CCN(c5cc(NCC6CCN(C(=O)CCCCCCCNc7cccc8c7C(=O)N(C7CCC(=O)NC7=O)C8=O)CC6)ncn5)CC4)C3)cc2F)CC1 (stereo not shown) [Compound 25] | 110 ± 10 | 102 | 94.8 | 92.1 | 87 | 83.2 | 36 ± 7% | 20 ± 9% | 1.2 ± 0.1 | 1200 ± 120 nM | – |
| CC1(C)CCN(Cc2cc(F)c(N3CC(=O)NC4(CCN(c5cc(NCCCNC(=O)CCCCCCCCCCNc6cccc7c6CN(C6CCC(=O)NC6=O)C7=O)ncn5)CC4)C3)cc2F)CC1 (stereo not shown) [Compound 11] | 300 ± 40 | – | – | – | – | 84.6 | 17 ± 22% | / (Degradation <10% or stabilization) | 0.3 ± 0.0 | 910 ± 40 nM | below 1 μM |
| CC1(C)CCN(Cc2cc(F)c(N3CC(=O)NC4(CCN(c5cc(NCc6cccc(CNC(=O)CCCCCCCCNc7cccc8c7CN(C7CCC(=O)NC7=O)C8=O)c6)ncn5)CC4)C3)cc2F)CC1 (stereo not shown) [Compound 16] | 67 ± 11 | – | – | – | – | 103 | 39 ± 13% | 24 ± 14% | 1.0 ± 0.0 | 430 ± 180 nM | – |
| CC1(C)CCN(Cc2cc(F)c(N3CC(=O)NC4(CCN(c5cc(NCc6cccc(CNC(=O)CCCCCCCCCCNc7cccc8c7CN(C7CCC(=O)NC7=O)C8=O)c6)ncn5)CC4)C3)cc2F)CC1 (stereo not shown) [Compound 17] | 160 ± 20 | 106 | 109 | 112 | 106 | 106 | 13 ± 6% | / (Degradation <10% or stabilization) | 1.0 ± 0.0 | 920 ± 160 nM | – |
| CC1(C)CCN(Cc2cc(F)c(N3CC(=O)NC4(CCN(c5cc(NCc6cccc(CNC(=O)CCCCCNc7cccc8c7C(=O)N(C7CCC(=O)NC7=O)C8=O)c6)ncn5)CC4)C3)cc2F)CC1 (stereo not shown) [Compound 15] | 33 ± 4 | 91.2 | 94.8 | 97.2 | 89.4 | 84.6 | / (Degradation <10% or stabilization) | / (Degradation <10% or stabilization) | 0.8 ± 0.1 | 640 ± 30 nM | – |
| CC1(C)CCN(Cc2cc(F)c(N3CC(=O)NC4(CCN(c5cc(NCCCNC(=O)CCCCCCCCn6cc(CNc7cccc8c7C(=O)N(C7CCC(=O)NC7=O)C8=O)nn6)ncn5)CC4)C3)cc2F)CC1 (stereo not shown) [Compound 12] | 67 ± 21 | – | – | – | – | 94.3 | 11 ± 27% | / (Degradation <10% or stabilization) | 0.7 ± 0.1 | 320 ± 160 nM | below 1 μM |
| CC1(C)CCN(Cc2ccc(N3CC(=O)NC4(CCN(c5cc(NCCCNC(=O)CCOCCOCCOCCNc6cccc7c6C(=O)N(C6CCC(=O)NC6=O)C7=O)ncn5)CC4)C3)cc2)CC1 (stereo not shown) [Compound 2] | 1060 ± 220 | – | – | – | – | – | / (Degradation <10% or stabilization) | / (Degradation <10% or stabilization) | 0.3 ± 0.1 | 2800 ± 280 nM | 2.8 µM |
| CC1(C)CCN(Cc2ccc(N3CC(=O)NC4(CCN(c5cc(NCCCNC(=O)CCCCCCCCn6cc(CNc7cccc8c7C(=O)N(C7CCC(=O)NC7=O)C8=O)nn6)ncn5)CC4)C3)cc2)CC1 (stereo not shown) [Compound 9] | 1800 ± 290 | – | – | – | – | – | / (Degradation <10% or stabilization) | / (Degradation <10% or stabilization) | 0.4 | 6700 (n = 1) nM | – |
| CC1(C)CCN(Cc2ccc(N3CC(=O)NC4(CCN(c5cc(NCCCNC(=O)CCOCCOCCNc6cccc7c6C(=O)N(C6CCC(=O)NC6=O)C7=O)ncn5)CC4)C3)cc2)CC1 (stereo not shown) [Compound 1] | 2470 ± 790 | – | – | – | – | – | / ^a (Degradation <10% or stabilization) | / ^a (Degradation <10% or stabilization) | 0.03 | 6800 (n = 1) nM | 6.8 µM |
